According to PubChem BioAssay AID248 (DTP/NCI, 2004):
Inconclusive results and toxic doses are left out. Rule as the data show it: active = T/C of 150% or more; inactive = T/C below 125%.

Test system: L1210 leukemia ip in BDF1 mice, survival T/C
Assay: NCI In Vivo Anticancer Drug Screen. Data for tumor model L1210 Leukemia (intraperitoneal) in B6D2F1 (BDF1) mice
Details: endpoint: mean survival time, schedule: Q04DX002 (ip), vehicle: saline with Tween-80, higher = longer survival
Outline: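 Ratio derived from survival: compound-dosed mice over vehicle-dosed mice, all bearing a transplantable tumor.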

Measured: T/C

Cc1cccc2c1C(=O)OC2(CC(=O)O)c1ccccc1 (stereo not drawn)
inactive: dose: 37.5 mg/kg/injection 101 % of control | dose: 75.0 mg/kg/injection 101 % of control | dose: 150.0 mg/kg/injection 101 % of control
